Assay results published in US10196390B2, “TYK2 inhibitors and uses thereof” (Nimbus Lakshmi, Inc., priority 2014, dated 2019).
Where two headings read alike, the source gives them in different places.

Tests used:
IL-12/IL-18 induced IFNγ = assay: Acute mouse model for IL-12/IL-18 induced IFNγ in serum; type: in vivo, C57BL/6 mice; conditions: in mice, efficacious dose of 30 mg/kg SC
Procedure: C57BL/6 mice mice are dosed PO or SC with test compound at various doses or vehicle (n=9 or 10 per group) and then, 30 minutes later, injected IP with 10 ng IL-12 and 1 μg IL-18. Three hours after IL-12/IL-18 injection, mice were bled and serum isolated. Concentration of cytokines in serum were determined using CBA analysis.

JAK2-pSTAT5 = assay: GM-CSF induced pSTAT5 in human PBMC; type: cell-based; conditions: read-out: JAK2-pSTAT5 EC50
Tyk2-pSTAT4 = assay: IL-12 induced pSTAT4 in human PBMC; type: cell-based; conditions: read-out: Tyk2-pSTAT4 EC50
Summary of the method: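 PBMC (200,000 cells/well) in serum-containing medium were preincubated with compound for 1 hr at 37 C, final DMSO 0.1%. Stimulation with 1.7 ng/mL IL-12 (final) for 30 minutes. pSTAT4 and total STAT4 were measured in lysates by MSD.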

JAK2 = JAK2 (Homo sapiens (Human), UniProt O60674); assay: JAK2 activity inhibition assay (radioactive kinase assay / Caliper assay); type: biochemical; conditions: read-out: JAK2 Ki
Summary of the method: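 Mobility-shift (Caliper) read-out of phosphorylated peptide substrate. Compound diluted in 25 mM HEPES pH 7.5, 0.01% Brij-35, 0.01% Triton, 0.5 mM EGTA; enzyme added, then peptide plus ATP in 10 mM MgCl2. Incubated 25 min at 28° C, stopped with EDTA buffer.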

TYK2 = TYK2 (Homo sapiens (Human), UniProt P29597); assay: Tyk2 activity inhibition assay (radioactive kinase assay / Caliper assay); type: biochemical
Summary of the method: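 Radiometric format: TYK2 with peptide substrate (20 μM) and 33P-ATP at 10 μM in HEPES pH 7.5, 1% DMSO, 120 min at room temp, P81 paper capture. Caliper mobility-shift format: TYK2 9.75 nM, peptide 30 at 3 uM, ATP 16 uM (also 1 mM), 25 min at 28° C.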

IL-12 induced IFNγ = assay: Ex vivo mouse IL-12 induced IFNγ studies; type: in vivo, C57/BL6 mice; conditions: ex vivo mouse model, doses of ≤10 mg/kg
Procedure: C57/BL6 mice were given a single oral dose of either vehicle or different doses of compound at a volume of 10 mL/kg. 30 minutes to 1 hour after dosing, animals were euthanized and blood was collected via vena cava into sodium heparin blood collection tubes and inverted several times. Blood was then plated on anti-CD3 coated plates and stimulated with 2 ng/ml of mouse IL-12 in RPMI media for 24 hours at 37° C. in humidified incubator with 5% CO2. At the end of the incubation, blood was centrifuged at 260 g for 5 minutes to collect supernatant. IFNγ concentration in the supernatant was determined with mouse IFNγ MSD kit per manufacture's instruction (Meso Scale Discovery). At the time of the blood collection, plasma was collected for drug level analysis by LC-MS/MS.

[1] = GM-CSF induced pSTAT5, human PBMC
[2] = IL-12 induced pSTAT4, human PBMC

Chain of JAK2 (O60674 whole entry): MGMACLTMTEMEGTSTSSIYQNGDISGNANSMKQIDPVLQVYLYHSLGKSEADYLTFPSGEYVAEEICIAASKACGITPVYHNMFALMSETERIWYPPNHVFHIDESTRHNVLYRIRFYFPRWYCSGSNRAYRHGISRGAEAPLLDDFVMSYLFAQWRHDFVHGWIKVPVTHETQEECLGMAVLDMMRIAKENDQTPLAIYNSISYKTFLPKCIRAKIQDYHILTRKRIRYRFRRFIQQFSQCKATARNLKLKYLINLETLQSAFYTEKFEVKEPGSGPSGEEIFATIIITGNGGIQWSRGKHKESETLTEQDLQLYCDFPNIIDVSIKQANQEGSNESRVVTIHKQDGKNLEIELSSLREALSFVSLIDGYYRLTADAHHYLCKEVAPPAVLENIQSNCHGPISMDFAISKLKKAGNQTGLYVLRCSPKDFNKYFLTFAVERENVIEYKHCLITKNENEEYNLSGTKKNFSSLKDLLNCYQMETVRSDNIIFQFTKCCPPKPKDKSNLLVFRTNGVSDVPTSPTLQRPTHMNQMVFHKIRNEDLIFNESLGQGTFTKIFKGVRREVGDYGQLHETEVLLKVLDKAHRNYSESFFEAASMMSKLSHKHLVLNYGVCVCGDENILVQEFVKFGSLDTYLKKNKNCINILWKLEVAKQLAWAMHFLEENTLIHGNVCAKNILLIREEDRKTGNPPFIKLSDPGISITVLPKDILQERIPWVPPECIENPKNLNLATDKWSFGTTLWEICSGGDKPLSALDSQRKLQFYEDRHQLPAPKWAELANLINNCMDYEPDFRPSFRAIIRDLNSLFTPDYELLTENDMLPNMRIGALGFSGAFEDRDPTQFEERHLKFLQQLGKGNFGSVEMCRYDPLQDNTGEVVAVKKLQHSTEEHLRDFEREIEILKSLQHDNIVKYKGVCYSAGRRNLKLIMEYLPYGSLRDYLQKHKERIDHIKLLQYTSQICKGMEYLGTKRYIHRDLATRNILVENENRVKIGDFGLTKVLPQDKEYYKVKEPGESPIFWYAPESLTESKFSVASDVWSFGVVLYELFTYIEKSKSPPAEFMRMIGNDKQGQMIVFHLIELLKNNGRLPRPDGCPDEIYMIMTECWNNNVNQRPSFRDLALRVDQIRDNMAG
Chain of TYK2 (P29597 whole entry): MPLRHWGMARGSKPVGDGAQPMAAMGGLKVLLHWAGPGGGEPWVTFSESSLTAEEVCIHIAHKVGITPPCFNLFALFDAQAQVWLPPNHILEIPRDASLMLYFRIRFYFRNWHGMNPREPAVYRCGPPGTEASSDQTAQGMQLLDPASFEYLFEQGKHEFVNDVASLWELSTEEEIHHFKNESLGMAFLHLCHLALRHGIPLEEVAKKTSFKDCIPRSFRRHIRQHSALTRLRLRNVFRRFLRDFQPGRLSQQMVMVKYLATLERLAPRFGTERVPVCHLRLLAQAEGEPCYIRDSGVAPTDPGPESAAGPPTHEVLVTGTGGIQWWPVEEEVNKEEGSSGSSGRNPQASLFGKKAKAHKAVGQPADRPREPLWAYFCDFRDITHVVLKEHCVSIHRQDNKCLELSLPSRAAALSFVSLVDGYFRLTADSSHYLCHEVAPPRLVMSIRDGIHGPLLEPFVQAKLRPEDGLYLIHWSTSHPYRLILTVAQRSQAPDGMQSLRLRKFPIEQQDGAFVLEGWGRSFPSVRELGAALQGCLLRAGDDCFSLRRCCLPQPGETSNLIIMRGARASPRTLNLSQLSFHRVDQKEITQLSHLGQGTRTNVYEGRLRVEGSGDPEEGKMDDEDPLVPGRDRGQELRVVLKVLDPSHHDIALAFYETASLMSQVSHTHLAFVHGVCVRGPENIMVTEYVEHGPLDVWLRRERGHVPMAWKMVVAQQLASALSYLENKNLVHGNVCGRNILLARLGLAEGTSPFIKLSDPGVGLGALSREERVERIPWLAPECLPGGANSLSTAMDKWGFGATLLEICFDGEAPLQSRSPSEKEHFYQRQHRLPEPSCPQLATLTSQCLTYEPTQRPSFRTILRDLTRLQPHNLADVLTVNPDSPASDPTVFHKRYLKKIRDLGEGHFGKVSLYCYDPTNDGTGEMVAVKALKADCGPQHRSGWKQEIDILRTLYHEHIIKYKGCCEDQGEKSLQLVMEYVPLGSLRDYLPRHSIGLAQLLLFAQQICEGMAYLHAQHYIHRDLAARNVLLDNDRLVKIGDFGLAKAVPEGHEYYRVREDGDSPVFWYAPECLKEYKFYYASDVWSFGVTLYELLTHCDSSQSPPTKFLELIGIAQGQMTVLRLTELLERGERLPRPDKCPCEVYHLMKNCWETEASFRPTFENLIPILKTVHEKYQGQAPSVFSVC

Ki (JAK2) [µM]	Ki (TYK2) [µM]	EC50 (JAK2-pSTAT5; [1]) [µM]	EC50 (Tyk2-pSTAT4; [2]) [µM]	SMILES	IL-12/IL-18 induced IFNγ production in vivo (IL-12/IL-18 induced IFNγ)	EC50 (JAK2-pSTAT5; Homo sapiens, PBMC) [µM]	EC50 (Tyk2-pSTAT4; Homo sapiens, PBMC) [µM]	IL-12 induced IFNγ production (IL-12 induced IFNγ)
0.01 to 0.1	< 0.01	2 to 20	< 2	CN1CCN(c2ccc(Nc3cc(-c4c(F)cccc4F)nc4c3C(=O)NC4)nc2)CC1 [Compound I-163, 2-(2,6-difluorophenyl)-4-((5-(4-methylpiperazin-1-yl)pyridin-2-yl)amino)-6,7-dihydro-5H-pyrrolo[3,4-b]pyridin-5-one]	–	–	–	–
0.01 to 0.1	< 0.01	2 to 20	< 2	CC(C)(C)NC(=O)c1ccc(Nc2cc(-c3c(F)cccc3F)nc3c2C(=O)NC3)nc1 [Compound I-165, N-(tert-butyl)-6-((2-(2,6-difluorophenyl)-5-oxo-6,7-dihydro-5H-pyrrolo[3,4-b]pyridin-4-yl)amino)nicotinamide]	–	–	–	significantly inhibit
0.1 to 1	< 0.01	> 20	< 2	COc1ccc(Nc2cc(-c3c(F)cccc3F)nc3c2C(=O)NC3)nc1 [Compound I-167, 2-(2,6-difluorophenyl)-4-((5-methoxypyridin-2-yl)amino)-6,7-dihydro-5H-pyrrolo[3,4-b]pyridin-5-one]	–	–	–	–
0.01 to 0.1	< 0.01	2 to 20	< 2	COc1ccc(Nc2cc(-c3c(F)cccc3F)nc3c2C(=O)NC3)nc1OC [Compound I-170, 2-(2,6-difluorophenyl)-4-((5,6-dimethoxypyridin-2-yl)amino)-6,7-dihydro-5H-pyrrolo[3,4-b]pyridin-5-one]	–	–	–	–
0.01 to 0.1	< 0.01	2 to 20	< 2	O=C1NCc2nc(-c3c(F)cccc3F)cc(Nc3ccc(N4CCOCC4)cn3)c21 [Compound I-171, 2-(2,6-difluorophenyl)-4-((5-morpholinopyridin-2-yl)amino)-6,7-dihydro-5H-pyrrolo[3,4-b]pyridin-5-one]	–	–	–	–
0.01 to 0.1	< 0.01	2 to 20	< 2	O=C1NCc2nc(-c3c(F)cccc3F)cc(Nc3ccc(N4CCC(F)(F)CC4)cn3)c21 [Compound I-182, 2-(2,6-difluorophenyl)-4-((5-(4,4-difluoropiperidin-1-yl)pyridin-2-yl)amino)-6,7-dihydro-5H-pyrrolo[3,4-b]pyridin-5-one]	–	–	–	–
0.1 to 1	< 0.01	> 20	< 2	CC(C)(C(=O)N1CCCC1)c1ccc(Nc2nc(-c3c(F)cccc3F)nc3c2C(=O)NC3)cc1 [Compound I-196, 2-(2,6-difluorophenyl)-4-((4-(2-methyl-1-oxo-1-(pyrrolidin-1-yl)propan-2-yl)phenyl)amino)-6,7-dihydro-5H-pyrrolo[3,4-d]pyrimidin-5-one]	–	–	–	–
0.01 to 0.1	< 0.01	2 to 20	< 2	O=C1NCc2nc(-c3c(F)cccc3F)cc(Nc3ccc(N4CC(O)C4)cn3)c21 [Compound I-214, 2-(2,6-difluorophenyl)-4-((5-(3-hydroxyazetidin-1-yl)pyridin-2-yl)amino)-6,7-dihydro-5H-pyrrolo[3,4-b]pyridin-5-one]	–	–	–	–
< 0.01	< 0.01	< 2	< 2	CC(C)(C)N1CCN(c2ccc(Nc3cc(-c4c(F)cccc4F)nc4c3C(=O)NC4)nc2)CC1 [Compound I-227, 4-((5-(4-(tert-butyl)piperazin-1-yl)pyridin-2-yl)amino)-2-(2,6-difluorophenyl)-6,7-dihydro-5H-pyrrolo[3,4-b]pyridin-5-one]	–	–	–	–
0.01 to 0.1	< 0.01	> 20	< 2	CC(=O)Nc1ccc(Nc2cc(-c3c(F)cccc3F)nc3c2C(=O)NC3)nc1 [Compound I-237, N-(6-((2-(2,6-difluorophenyl)-5-oxo-6,7-dihydro-5H-pyrrolo[3,4-b]pyridin-4-yl)amino)pyridin-3-yl)acetamide]	–	–	–	–
< 0.01	< 0.01	< 2	< 2	C[C@@H]1COC[C@@H](C)N1c1ccc(Nc2cc(-c3c(F)cccc3F)nc3c2C(=O)NC3)nc1 [Compound I-263, 2-(2,6-difluorophenyl)-4-((5-((3R,5R)-3,5-dimethylmorpholino)pyridin-2-yl)amino)-6,7-dihydro-5H-pyrrolo[3,4-b]pyridin-5-one]	–	–	–	–
0.01 to 0.1	< 0.01	< 2	< 2	O=C1NCc2nc(-c3c(F)cccc3F)cc(Nc3ccc(NC4CCC4)cn3)c21 [Compound I-276, 4-((5-(cyclobutylamino)pyridin-2-yl)amino)-2-(2,6-difluoro-phenyl)-6,7-dihydro-5H-pyrrolo[3,4-b]pyridin-5-one]	–	–	–	–

SMILES	Ki (JAK2) [µM]	Ki (TYK2) [µM]	EC50 (JAK2-pSTAT5; [1]) [µM]	EC50 (Tyk2-pSTAT4; [2]) [µM]	IL-12/IL-18 induced IFNγ production in vivo (IL-12/IL-18 induced IFNγ)	EC50 (JAK2-pSTAT5; Homo sapiens, PBMC) [µM]	EC50 (Tyk2-pSTAT4; Homo sapiens, PBMC) [µM]	IL-12 induced IFNγ production (IL-12 induced IFNγ)
CCNC(=O)Cc1ccc(Nc2nc(-c3c(F)cccc3F)nc3c2C(=O)NC3)cc1 [Compound I-80, 2-(4-((2-(2,6-difluorophenyl)-5-oxo-6,7-dihydro-5H-pyrrolo[3,4-d]pyrimidin-4-yl)amino)phenyl)-N-ethylacetamide]	0.1 to 1	< 0.01	–	–	inhibited	> 20	< 2	–
CCNC(=O)c1ccc(Nc2cc(-c3c(F)cccc3F)nc3c2C(=O)NC3)nc1 [Compound I-136, 6-((2-(2,6-difluorophenyl)-5-oxo-6,7-dihydro-5H-pyrrolo[3,4-b]pyridin-4-yl)amino)-N-ethylnicotinamide]	0.01 to 0.1	< 0.01	–	–	–	< 2	< 2	significantly inhibit
C[C@H](C(=O)N1CCCCC1)c1ccc(Nc2nc(-c3c(F)cccc3F)nc3c2C(=O)NC3)cc1 [Compound I-206, (S)-2-(2,6-difluorophenyl)-4-((4-(1-oxo-1-(piperidin-1-yl)propan-2-yl)phenyl)amino)-6,7-dihydro-5H-pyrrolo[3,4-d]pyrimidin-5-one]	0.1 to 1	< 0.01	–	–	–	> 20	< 2	–
C[C@@H](C(=O)N1CCCCC1)c1ccc(Nc2nc(-c3c(F)cccc3F)nc3c2C(=O)NC3)cc1 [Compound I-207, (R)-2-(2,6-difluorophenyl)-4-((4-(1-oxo-1-(piperidin-1-yl)propan-2-yl)phenyl)amino)-6,7-dihydro-5H-pyrrolo[3,4-d]pyrimidin-5-one]	0.1 to 1	< 0.01	–	–	–	2 to 20	< 2	–
O=C1NCc2nc(-c3c(F)cccc3F)cc(Nc3ccc(C(=O)N4CCOCC4)cc3)c21 [Compound I-231, 2-(2,6-difluorophenyl)-4-((4-(morpholine-4-carbonyl)-phenyl)amino)-6,7-dihydro-5H-pyrrolo[3,4-b]pyridin-5-one]	0.01 to 0.1	< 0.01	2 to 20	–	–	–	< 2	–
CC(C)NC(=O)c1ccc(Nc2cc(-c3c(F)cccc3F)nc3c2C(=O)NC3)cc1 [Compound I-232, 4-((2-(2,6-difluorophenyl)-5-oxo-6,7-dihydro-5H-pyrrolo[3,4-b]pyridin-4-yl)amino)-N-isopropylbenzamide]	0.01 to 0.1	< 0.01	–	–	–	2 to 20	< 2	–
